# Data reported in ChEMBL document CHEMBL1137171, “D-piece modifications of the hemiasterlin analog HTI-286 produce potent tubulin inhibitors” (Bioorg Med Chem Lett, 2004).
# Tested on: not listed separately
# Assay: Compound was tested for cytotoxicity against paclitaxel resistant KB-V1 cell line expressing P-glycoprotein
# Conditions: Homo sapiens
row,Structure (SMILES),IC50 [nM]
1,CN[C@H](C(=O)N[C@H](C(=O)N(C)[C@H](/C=C1/C(=O)NC(=O)N1C)C(C)C)C(C)(C)C)C(C)(C)c1ccccc1,230
2,CN[C@H](C(=O)N[C@H](C(=O)N(C)[C@H](/C=C(\C)[C@H](O)c1ccccc1)C(C)C)C(C)(C)C)C(C)(C)c1ccccc1,632
3,CN[C@H](C(=O)N[C@H](C(=O)N(C)[C@H](/C=C(\C)c1ccccc1)C(C)C)C(C)(C)C)C(C)(C)c1ccccc1,> 3000
4,CN[C@H](C(=O)N[C@H](C(=O)N(C)[C@H](/C=C(\C)C(=O)O)C(C)C)C(C)(C)C)C(C)(C)c1ccccc1 [TALTOBULIN],77
5,CN[C@H](C(=O)N[C@H](C(=O)N(C)[C@H](/C=C(\C)C(=O)N1CC=C[C@@H]1C(=O)O)C(C)C)C(C)(C)C)C(C)(C)c1ccccc1,> 3000
6,CN[C@H](C(=O)N[C@H](C(=O)N(C)[C@H](/C=C(/C)C(=O)O)C(C)C)C(C)(C)C)C(C)(C)c1ccccc1,2630
7,CN[C@H](C(=O)N[C@H](C(=O)N(C)[C@H](/C=C(\C)C(=O)N1CCC[C@H]1C(=O)O)C(C)C)C(C)(C)C)C(C)(C)c1ccccc1,> 3000
8,CN[C@H](C(=O)N[C@H](C(=O)N(C)[C@H](/C=C(\C)C(=O)N1CCC[C@@H]1C(=O)O)C(C)C)C(C)(C)C)C(C)(C)c1cccc(C)c1,> 3000
9,CN[C@H](C(=O)N[C@H](C(=O)N(C)[C@H](/C=C(\C)C(=O)N1CCC[C@@H]1C(=O)OC)C(C)C)C(C)(C)C)C(C)(C)c1cccc(Cl)c1,362
10,CN[C@H](C(=O)N[C@H](C(=O)N(C)[C@H](/C=C(\C)C(C)O)C(C)C)C(C)(C)C)C(C)(C)c1ccccc1 (stereo not given in full),1460
11,CN[C@H](C(=O)N[C@H](C(=O)N(C)[C@H](/C=C(\C)C(=O)N1CCCC[C@@H]1C(=O)OC)C(C)C)C(C)(C)C)C(C)(C)c1ccccc1,150
12,CN[C@H](C(=O)N[C@H](C(=O)N(C)[C@H](C(=O)O)C(C)C)C(C)(C)C)C(C)(C)c1ccccc1,> 3000
13,CN[C@H](C(=O)N[C@H](C(=O)N(C)[C@H](/C=C(\C)C(=O)N1CC(O)C[C@@H]1C(=O)O)C(C)C)C(C)(C)C)C(C)(C)c1ccccc1 (stereo not given in full),> 3000
14,CN[C@H](C(=O)N[C@H](C(=O)N(C)[C@H](/C=C(\C)C(=O)N1CCC[C@@H]1C(=O)OC)C(C)C)C(C)(C)C)C(C)(C)c1ccc(C)c(C)c1,363
15,CN[C@H](C(=O)N[C@H](C(=O)N(C)[C@H](/C=C(\C)C(=O)N1CCC[C@@H]1C(=O)OC)C(C)C)C(C)(C)C)C(C)(C)C1CCCCC1,493
16,CN[C@H](C(=O)N[C@H](C(=O)N(C)[C@H](/C=C(\C)C(=O)N1CCC[C@@H]1C(=O)O)C(C)C)C(C)(C)C)C(C)(C)c1ccc(C)c(C)c1,> 3000
17,CN[C@H](C(=O)N[C@H](C(=O)N(C)[C@H](/C=C(\C)C(=O)N1CCC[C@@H]1C(=O)O)C(C)C)C(C)(C)C)C(C)(C)c1cccc(Cl)c1,> 3000
18,CN[C@H](C(=O)N[C@H](C(=O)N(C)[C@H](/C=C(\C)C(=O)c1nccs1)C(C)C)C(C)(C)C)C(C)(C)c1ccccc1,1790
19,CN[C@H](C(=O)N[C@H](C(=O)N(C)[C@H](/C=C(\C)C(=O)N1CCC[C@@H]1C(=O)OC)C(C)C)C(C)(C)C)C(C)(C)c1ccccc1,291
20,CN[C@H](C(=O)N[C@H](C(=O)N(C)[C@H](/C=C(\C)CO)C(C)C)C(C)(C)C)C(C)(C)c1ccccc1,1590

# Tested on: KB
# Assay: Compound was tested for cytotoxicity against paclitaxel resistant KB-8-5 cell line expressing P-glycoprotein
# Format: functional, cell-based
# Conditions: Homo sapiens
row,Structure (SMILES),IC50 [nM]
1,CN[C@H](C(=O)N[C@H](C(=O)N(C)[C@H](/C=C1/C(=O)NC(=O)N1C)C(C)C)C(C)(C)C)C(C)(C)c1ccccc1,9.9
2,CN[C@H](C(=O)N[C@H](C(=O)N(C)[C@H](/C=C(\C)[C@H](O)c1ccccc1)C(C)C)C(C)(C)C)C(C)(C)c1ccccc1,186
3,CN[C@H](C(=O)N[C@H](C(=O)N(C)[C@H](/C=C(\C)c1ccccc1)C(C)C)C(C)(C)C)C(C)(C)c1ccccc1,> 3000
4,CN[C@H](C(=O)N[C@H](C(=O)N(C)[C@H](/C=C(\C)C(=O)O)C(C)C)C(C)(C)C)C(C)(C)c1ccccc1 [TALTOBULIN],2.3
5,CN[C@H](C(=O)N[C@H](C(=O)N(C)[C@H](/C=C(\C)C(=O)N1CC=C[C@@H]1C(=O)O)C(C)C)C(C)(C)C)C(C)(C)c1ccccc1,184
6,CN[C@H](C(=O)N[C@H](C(=O)N(C)[C@H](/C=C(/C)C(=O)O)C(C)C)C(C)(C)C)C(C)(C)c1ccccc1,58
7,CN[C@H](C(=O)N[C@H](C(=O)N(C)[C@H](/C=C(\C)C(=O)N1CCC[C@H]1C(=O)O)C(C)C)C(C)(C)C)C(C)(C)c1ccccc1,1580
8,CN[C@H](C(=O)N[C@H](C(=O)N(C)[C@H](/C=C(\C)C(=O)N1CCC[C@@H]1C(=O)O)C(C)C)C(C)(C)C)C(C)(C)c1cccc(C)c1,599
9,CN[C@H](C(=O)N[C@H](C(=O)N(C)[C@H](/C=C(\C)C(=O)N1CCC[C@@H]1C(=O)OC)C(C)C)C(C)(C)C)C(C)(C)c1cccc(Cl)c1,6.2
10,CN[C@H](C(=O)N[C@H](C(=O)N(C)[C@H](/C=C(\C)C(C)O)C(C)C)C(C)(C)C)C(C)(C)c1ccccc1 (stereo not given in full),172
11,CN[C@H](C(=O)N[C@H](C(=O)N(C)[C@H](/C=C(\C)C(=O)N1CCCC[C@@H]1C(=O)OC)C(C)C)C(C)(C)C)C(C)(C)c1ccccc1,17
12,CN[C@H](C(=O)N[C@H](C(=O)N(C)[C@H](C(=O)O)C(C)C)C(C)(C)C)C(C)(C)c1ccccc1,> 3000
13,CN[C@H](C(=O)N[C@H](C(=O)N(C)[C@H](/C=C(\C)C(=O)N1CC(O)C[C@@H]1C(=O)O)C(C)C)C(C)(C)C)C(C)(C)c1ccccc1 (stereo not given in full),1850
14,CN[C@H](C(=O)N[C@H](C(=O)N(C)[C@H](/C=C(\C)C(=O)N1CCC[C@@H]1C(=O)OC)C(C)C)C(C)(C)C)C(C)(C)c1ccc(C)c(C)c1,15
15,CN[C@H](C(=O)N[C@H](C(=O)N(C)[C@H](/C=C(\C)C(=O)N1CCC[C@@H]1C(=O)OC)C(C)C)C(C)(C)C)C(C)(C)C1CCCCC1,16
16,CN[C@H](C(=O)N[C@H](C(=O)N(C)[C@H](/C=C(\C)C(=O)N1CCC[C@@H]1C(=O)O)C(C)C)C(C)(C)C)C(C)(C)c1ccc(C)c(C)c1,519
17,CN[C@H](C(=O)N[C@H](C(=O)N(C)[C@H](/C=C(\C)C(=O)N1CCC[C@@H]1C(=O)O)C(C)C)C(C)(C)C)C(C)(C)c1cccc(Cl)c1,180
18,CN[C@H](C(=O)N[C@H](C(=O)N(C)[C@H](/C=C(\C)C(=O)c1nccs1)C(C)C)C(C)(C)C)C(C)(C)c1ccccc1,565
19,CN[C@H](C(=O)N[C@H](C(=O)N(C)[C@H](/C=C(\C)C(=O)N1CCC[C@@H]1C(=O)OC)C(C)C)C(C)(C)C)C(C)(C)c1ccccc1,7.3
20,CN[C@H](C(=O)N[C@H](C(=O)N(C)[C@H](/C=C(\C)CO)C(C)C)C(C)(C)C)C(C)(C)c1ccccc1,447

# Tested on: KB 3-1
# Assay: Compound was tested for cytotoxicity against paclitaxel sensitive KB-3-1 cell line
# Format: functional, cell-based
# Conditions: Homo sapiens
row,Structure (SMILES),IC50 [nM]
1,CN[C@H](C(=O)N[C@H](C(=O)N(C)[C@H](/C=C1/C(=O)NC(=O)N1C)C(C)C)C(C)(C)C)C(C)(C)c1ccccc1,5.1
2,CN[C@H](C(=O)N[C@H](C(=O)N(C)[C@H](/C=C(\C)[C@H](O)c1ccccc1)C(C)C)C(C)(C)C)C(C)(C)c1ccccc1,124
3,CN[C@H](C(=O)N[C@H](C(=O)N(C)[C@H](/C=C(\C)c1ccccc1)C(C)C)C(C)(C)C)C(C)(C)c1ccccc1,> 3000
4,CN[C@H](C(=O)N[C@H](C(=O)N(C)[C@H](/C=C(\C)C(=O)O)C(C)C)C(C)(C)C)C(C)(C)c1ccccc1 [TALTOBULIN],0.96
5,CN[C@H](C(=O)N[C@H](C(=O)N(C)[C@H](/C=C(\C)C(=O)N1CC=C[C@@H]1C(=O)O)C(C)C)C(C)(C)C)C(C)(C)c1ccccc1,58
6,CN[C@H](C(=O)N[C@H](C(=O)N(C)[C@H](/C=C(/C)C(=O)O)C(C)C)C(C)(C)C)C(C)(C)c1ccccc1,28
7,CN[C@H](C(=O)N[C@H](C(=O)N(C)[C@H](/C=C(\C)C(=O)N1CCC[C@H]1C(=O)O)C(C)C)C(C)(C)C)C(C)(C)c1ccccc1,515
8,CN[C@H](C(=O)N[C@H](C(=O)N(C)[C@H](/C=C(\C)C(=O)N1CCC[C@@H]1C(=O)O)C(C)C)C(C)(C)C)C(C)(C)c1cccc(C)c1,70
9,CN[C@H](C(=O)N[C@H](C(=O)N(C)[C@H](/C=C(\C)C(=O)N1CCC[C@@H]1C(=O)OC)C(C)C)C(C)(C)C)C(C)(C)c1cccc(Cl)c1,2.5
10,CN[C@H](C(=O)N[C@H](C(=O)N(C)[C@H](/C=C(\C)C(C)O)C(C)C)C(C)(C)C)C(C)(C)c1ccccc1 (stereo not given in full),63
11,CN[C@H](C(=O)N[C@H](C(=O)N(C)[C@H](/C=C(\C)C(=O)N1CCCC[C@@H]1C(=O)OC)C(C)C)C(C)(C)C)C(C)(C)c1ccccc1,5.2
12,CN[C@H](C(=O)N[C@H](C(=O)N(C)[C@H](C(=O)O)C(C)C)C(C)(C)C)C(C)(C)c1ccccc1,> 3000
13,CN[C@H](C(=O)N[C@H](C(=O)N(C)[C@H](/C=C(\C)C(=O)N1CC(O)C[C@@H]1C(=O)O)C(C)C)C(C)(C)C)C(C)(C)c1ccccc1 (stereo not given in full),184
14,CN[C@H](C(=O)N[C@H](C(=O)N(C)[C@H](/C=C(\C)C(=O)N1CCC[C@@H]1C(=O)OC)C(C)C)C(C)(C)C)C(C)(C)c1ccc(C)c(C)c1,1.9
15,CN[C@H](C(=O)N[C@H](C(=O)N(C)[C@H](/C=C(\C)C(=O)N1CCC[C@@H]1C(=O)OC)C(C)C)C(C)(C)C)C(C)(C)C1CCCCC1,3.7
16,CN[C@H](C(=O)N[C@H](C(=O)N(C)[C@H](/C=C(\C)C(=O)N1CCC[C@@H]1C(=O)O)C(C)C)C(C)(C)C)C(C)(C)c1ccc(C)c(C)c1,74
17,CN[C@H](C(=O)N[C@H](C(=O)N(C)[C@H](/C=C(\C)C(=O)N1CCC[C@@H]1C(=O)O)C(C)C)C(C)(C)C)C(C)(C)c1cccc(Cl)c1,62
18,CN[C@H](C(=O)N[C@H](C(=O)N(C)[C@H](/C=C(\C)C(=O)c1nccs1)C(C)C)C(C)(C)C)C(C)(C)c1ccccc1,582
19,CN[C@H](C(=O)N[C@H](C(=O)N(C)[C@H](/C=C(\C)C(=O)N1CCC[C@@H]1C(=O)OC)C(C)C)C(C)(C)C)C(C)(C)c1ccccc1,1.5
20,CN[C@H](C(=O)N[C@H](C(=O)N(C)[C@H](/C=C(\C)CO)C(C)C)C(C)(C)C)C(C)(C)c1ccccc1,454
